In US10793577B2, “Fused bicyclic compounds for the treatment of disease” (AKARNA THERAPEUTICS, LTD., priority 2014, dated 2020):

Target: T1, FXR (Homo sapiens, UniProt Q96RI1)
T1 construct: expressed in transfected cells
T1 sequence (Q96RI1 1-486): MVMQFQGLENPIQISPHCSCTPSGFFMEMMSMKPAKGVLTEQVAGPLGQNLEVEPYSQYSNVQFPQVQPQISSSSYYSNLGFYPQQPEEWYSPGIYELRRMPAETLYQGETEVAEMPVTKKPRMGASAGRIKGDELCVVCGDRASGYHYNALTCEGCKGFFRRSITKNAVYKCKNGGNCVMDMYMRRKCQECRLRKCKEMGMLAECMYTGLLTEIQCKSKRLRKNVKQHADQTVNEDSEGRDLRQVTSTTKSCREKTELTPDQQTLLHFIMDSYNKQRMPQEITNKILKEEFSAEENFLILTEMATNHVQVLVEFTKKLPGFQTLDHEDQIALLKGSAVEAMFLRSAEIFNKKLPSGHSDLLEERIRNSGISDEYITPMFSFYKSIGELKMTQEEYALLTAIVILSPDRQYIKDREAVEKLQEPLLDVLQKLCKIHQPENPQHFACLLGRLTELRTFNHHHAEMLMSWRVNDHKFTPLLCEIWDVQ
Experiment: FXR agonist transactivation assay (luciferase reporter)
Type: cell-based
Conditions: transiently transfected cells, 18 h stimulation with test compound, luciferase normalized to Renilla
Procedure: Example 21: FXR Agonist Transactivation Assay
For the transactivation assay, cells were transiently transfected with 100 ng of reporter vector and 10 ng of expression plasmid. Forty nanograms of pGL4.74 was used as internal control for transfection efficiency. The pGEM vector was added to normalize the amounts of DNA transfected in each assay (2 μg). All transfections were performed using FuGENE HD (Roche, Mannheim, Germany) according to the manufacturer's protocol. Twenty-four hours after transfection, cells were stimulated with increasing concentrations of the test compounds for further 18 h. Control cultures receive vehicle (0.1% DMSO) alone. Luciferase values were normalized with Renilla reniformis luciferase units, for transfection efficiency.

Molecule	EC50
CC(C)OC(=O)C1=CN(C(=O)c2ccc(Cl)c(Cl)c2)CC(C)(C)c2c1[nH]c1ncc(Cl)cc21 [Compound 9, Propan-2-yl 4-chloro-12-(3,4-dichlorobenzoyl)-14,14-dimethyl-6,8,12-triazatricyclo[7.5.0.02,7]tetradeca-1(9),2,4,6,10-pentaene-10-carboxylate]	1000 to 10000 nM
CC(C)OC(=O)C1=CN(C(=O)c2ccc(F)c(F)c2)CC(C)(C)c2c1[nH]c1cc(Cl)cnc21 [Compound 22, Propan-2-yl 5-chloro-12-(3,4-difluorobenzoyl)-14,14-dimethyl-3,8,12-triazatricyclo[7.5.0.02,7]tetradeca-1(9),2,4,6,10-pentaene-10-carboxylate]	< 1000 nM
CC(C)OC(=O)C1=CN(C(=O)c2ccc(F)c(F)c2)CC(C)(C)c2c1[nH]c1cc(F)cnc21 [Compound 33]	< 1000 nM
COc1ccc2[nH]c3c(c2n1)C(C)(C)CN(C(=O)c1ccc(F)c(F)c1)C=C3C(=O)OC(C)C [Compound 42, Propan-2-yl 12-(3,4-difluorobenzoyl)-14,14-dimethyl-4-methoxy-3,8,12-triazatricyclo[7.5.0.02,7]tetradeca-1(9),2,4,6,10-pentaene-10-carboxylate]	< 1000 nM
CC(C)OC(=O)C1=CN(C(=O)c2ccc(F)c(F)c2)CC(C)(C)c2c1[nH]c1cccnc21 [Compound 55, Propan-2-yl 12-(3,4-difluorobenzoyl)-14,14-dimethyl-3,8,12-triazatricyclo[7.5.0.02,7]tetradeca-1(9),2,4,6,10-pentaene-10-carboxylate]	< 1000 nM
CCOC(=O)C1=CN(C(=O)c2ccc(F)c(F)c2)CC(C)(C)c2c1[nH]c1cccnc21 [Compound 56, eth-2-yl 12-(3,4-difluorobenzoyl)-14,14-dimethyl-3,8,12-triazatricyclo[7.5.0.02,7]tetradeca-1(9),2,4,6,10-pentaene-10-carboxylate]	< 1000 nM
CCOC(=O)C1=CN(C(=O)c2ccc(F)c(F)c2)CC(C)(C)c2c1[nH]c1ncccc21 [Compound 58, eth-2-yl 12-(3,4-difluorobenzoyl)-14,14-dimethyl-6,8,12-triazatricyclo[7.5.0.02,7]tetradeca-1(9),2,4,6,10-pentaene-10-carboxylate]	< 1000 nM
CC(C)OC(=O)C1=CN(C(=O)c2ccc(F)c(F)c2)CC(C)(C)c2c1[nH]c1ncc(F)cc21 [Compound 59, propan-2-yl 4-fluoro-12-(3,4-difluorobenzoyl)-14,14-dimethyl-6,8,12-triazatricyclo[7.5.0.02,7]tetradeca-1(9),2,4,6,10-pentaene-10-carboxylate]	< 1000 nM
CC(C)OC(=O)C1=CN(C(=O)c2ccc(F)c(F)c2)CC(C)(C)c2c1[nH]c1cc(OCCO)c(Cl)nc21 [Compound 72, Propan-2-yl 12-(3,4-difluorobenzoyl)-14,14-dimethyl-5-(2-hydroxyethoxy)-4-chloro-3,8,12-triazatricyclo[7.5.0.02,7]tetradeca-1(9),2,4,6,10-pentaene-10-carboxylate]	1000 to 10000 nM
CC(C)OC(=O)C1=CN(C(=O)c2ccc(F)c(F)c2)CC(C)(C)c2c1[nH]c1ccc(OCCO)nc21 [Compound 84, Propan-2-yl 12-(3,4-difluorobenzoyl)-14,14-dimethyl-4-(2-hydroxyethoxy)-3,8,12-triazatricyclo[7.5.0.02,7]tetradeca-1(9),2,4,6,10-pentaene-10-carboxylate]	< 1000 nM
COc1ccc2[nH]c3c(c2n1)C(C)(C)CN(C(=O)c1ccc(OCCN2CCOCC2)cc1)C=C3C(=O)OC(C)C [Compound 91, propan-2-yl 12-(4-(2-morpholinoethoxy)benzoyl)-14,14-dimethyl-4-(methoxy)-3,8,12-triazatricyclo[7.5.0.02,7]tetradeca-1(9),2,4,6,10-pentaene-10-carboxylate]	< 1000 nM
COc1nc2c3c([nH]c2cc1Cl)C(C(=O)OC(C)C)=CN(C(=O)c1ccc(F)c(F)c1)CC3(C)C [Compound 101, propan-2-yl 5-chloro-4-methoxy-12-(3,4-difluorobenzoyl)-14,14-dimethyl-3,8,12-triazatricyclo[7.5.0.02,7]tetradeca-1(9),2,4,6,10-pentaene-10-carboxylate]	< 1000 nM

More lines, now with the values ahead:

EC50	Molecule
< 1000 nM	CC(C)OC(=O)C1=CN(C(=O)c2ccc(F)c(F)c2)CC(C)(C)c2c1[nH]c1ncc(Cl)cc21 [Compound 10, propan-2-yl 4-chloro-12-(3,4-difluorobenzoyl)-14,14-dimethyl-6,8,12-triazatricyclo[7.5.0.02,7]tetradeca-1(9),2,4,6,10-pentaene-10-carboxylate]
1000 to 10000 nM	CC(C)OC(=O)C1=CN(C(=O)c2ccc(F)cc2)CC(C)(C)c2c1[nH]c1ncc(Cl)cc21 [Compound 11, propan-2-yl 4-chloro-12-(4-fluorobenzoyl)-14,14-dimethyl-6,8,12-triazatricyclo[7.5.0.02,7]tetradeca-1(9),2,4,6,10-pentaene-10-carboxylate]
< 1000 nM	COc1ccc2[nH]c3c(c2n1)C(C)(C)CN(C(=O)c1ccc(F)cc1)C=C3C(=O)OC(C)C [Compound 43, propan-2-yl 12-(4-fluorobenzoyl)-14,14-dimethyl-4-methoxy-3,8,12-triazatricyclo[7.5.0.02,7]tetradeca-1(9),2,4,6,10-pentaene-10-carboxylate]
< 1000 nM	CC(C)OC(=O)C1=CN(C(=O)c2ccc(F)c(F)c2)CC(C)(C)c2c1[nH]c1ncccc21 [Compound 57, propan-2-yl 12-(3,4-difluorobenzoyl)-14,14-dimethyl-6,8,12-triazatricyclo[7.5.0.02,7]tetradeca-1(9),2,4,6,10-pentaene-10-carboxylate]
< 1000 nM	CC(C)NC(=O)C1=CN(C(=O)c2ccc(F)c(F)c2)CC(C)(C)c2c1[nH]c1cc(Cl)cnc21 [Compound 85, 3-chloro-8-(3,4-difluorobenzoyl)-N-isopropyl-10,10-dimethyl-5,8,9,10-tetrahydropyrido[2′,3′:4,5]pyrrolo[2,3-d]azepine-6-carboxamide]
< 1000 nM	propan-2-yl 4-chloro-12-(4-(2-morpholinoethoxy)benzoyl)-14,14-dimethyl-6,8,12-triazatricyclo[7.5.0.02,7]tetradeca-1(9),2,4,6,10-pentaene-10-carboxylate [Compound 89]
